Measurements as given in patent publication US5356781A, “Zymogen activation peptides (ZAP) in the diagnosis of disease” (Bioscience International, Inc., priority 1986, dated 1994).
Where no end group is shown, it is not given here.

Legend:
[1] = test system: affinity-purified Ca^2+ -dependent antibodies present in sera from rabbit 1 (anti-D4 K); assay: Solution phase competitive immunoradiometric assay: competition of binding to 125I-YD4 K, precipitation with second antibody; settings: Ca2+-dependent antibodies from rabbit 1; FIG. 3; read-out: IC50, displacement of binding to 125I-YD4 K
Description: The relative affinities of affinity-purified Ca^2+ -dependent antibodies present in sera from rabbit 1 for various peptides was examined by determining competition of binding to ^125 I-YD4 K, measured by precipitation with a second antibody, donkey anti-rabbit. […] Some binding to Asp2 Lys was seen.
100 μl of a 1:250 dilution of anti-D4 K antiserum or a dilution of affinity-purified anti-D4 K antibodies in 50mM Tris-Hcl, 20mM CaCl2, 0.1% (w/v) BSA, pH 7.4 (RIA buffer) were added to 100 μl of ^125 I-YD4 K, (10,000 cpm) in RIA buffer containing 0.2% (v/v) normal rabbit serum in polystyrene tubes. Then 100 μl of solutions containing various concentrations of standard peptides or unknown plasma samples diluted in RIA-buffer were added, followed by 50 μl of donkey anti-rabbit Ig serum (Wellcome Biotechnology) diluted 1:10 with RIA-buffer with 0.2% normal rabbit serum. The mixtures were incubated 18 hours at 4° C., then the tubes were centrifuged at 3,000 rpm for 45 minutes at 4° C., and the supernatants aspirated. The radioactivity in the precipitates was determined in an LKB rack-gamma counter.

in vivo = settings: rat, iv
Description: To determine the fate of circulating peptide, D4 K (0.28 ml, 1 mg/ml) was injected into the left femoral vein of rats under phenobarbital anaesthesia. Blood samples (0.5 ml) were collected every 15 minutes for 2 hours, and subjected to immunoassay.

[2] = Incubation in human serum (immunoreactivity; Sephadex G-100 chromatography); assay type: in vitro ADME
Description: Immunoreactive D4 K was unaltered by incubation with undenatured human serum at 37° C. for 6 hours and 4° C. for 48 hours.

[3] = assay type: in vitro ADME
Description: The stability of APFD4 K and D4 K were examined by incubation with activated pancreatic juice, and the chemical identity of the product examined by high-voltage paper electrophoresis at pH 6.5. […] In three separate experiments, duplicate 65 to 75 mg portions of fresh dog pancreas were placed in modified Bank's medium and incubated in the presence or absence of 100 units enterokinase (Sigma Chem. Co. […]) at 37° C. for 4 hours and 22° C. for a further 20 hours. Duplicate 100 ul samples of culture medium supernatant were taken at intervals, diluted 2:1 with RIA buffer, boiled for 10 minutes and centrifuged. Supernatants were then stored at -20° C. prior to assay for D4 K peptides.

anti-D4 K antibodies = assay: Displacement of 125I-YD4 K binding by trypsinogen with and without enteropeptidase activation; design: species or system rabbit
Description: Of great importance to the general principle of the PAP assay of which this is an example, and for the application of these specific anti-D4 K antibodies to the diagnosis of pancreatic disease was the finding that anti-D4 K antibodies were […] on the peptide, and were not displaced by trypsinogen (where the peptide is C-terminally bound to the protein) in concentrations of the zymogen of up to 100 μg/ml. Upon incubation of trypsinogen with enteropeptidase, however, released D4 K-containing activation peptides actively displaced the binding of synthetic ^125 I-YD4 K giving 50% displacement after activation of a 2 μg/ml solution of trypsinogen (FIG. 4). Trypsinogen in native dog pancreatic juice was also activated by enteropeptidase (FIG. 4) releasing immunoreactive D4 K peptides, giving 50% displacement in competitive solution-phase immunoassay after activation of 10^-8 L pancreatic juice. The novel D4 K-specific antibodies described here therefore also provide a new sensitive assay for enteropeptidase and trypsinogen applicable to fluids with endogenous trypsin inhibitors. […]

NCCCC[C@H](N)C(=O)O [Lys, Lysine]
IC50 [1]: > 100 µM

DDDDK [D4 K, Asp-Asp-Asp-Asp-Lys]
half-life (in vivo): ~15 min | stability of immunoreactive peptide in undenatured human serum ([2]; 4° C. for 48 hours): unaltered | stability of immunoreactive peptide in undenatured human serum ([2]; 37° C. for 6 hours): unaltered

N[C@@H](CC(=O)O)C(=O)O [Asp, Aspartic Acid]
IC50 [1]: > 100 µM

APFDDDDK [APFD4 K, Ala-Pro-Phe-Asp-Asp-Asp-Asp-Lys]
stability in activated pancreatic juice (identity of product) [3]: rapidly converted to free Ala, Pro and Phe and D4 K

poly-Asp
IC50 [1]: > 100 µM

YDDDDK [YD4 K]
complexing with a serum component ([2]; Sephadex G-100 chromatography after incubation in human serum): did not complex with a serum component

B1: trypsinogen: zymogen in which the D4 K peptide is C-terminally bound to the protein (protein, UniProt P00760 18-246, looked up)
pro-form: VDDDDKIVGGYTCGANTVPYQVSLNSGYHFCGGSLINSQWVVSAAHCYKSGIQVRLGEDNINVVEGNEQFISASKSIVHPSYNSNTLNNDIMLIKLKSAASLNSRVASISLPTSCASAGTQCLISGWGNTKSSGTSYPDVLKCLKAPILSDSSCKSAYPGQITSNMFCAGYLEGGKDSCQGDSGGPVVCSGKLQGIVSWGSGCAQKNKPGVYTKVCNYVSWIKQTIASN
modifications: pro-form
concentration of solution giving 50% displacement of 125I-YD4 K (anti-D4 K antibodies; after incubation of trypsinogen with enteropeptidase, FIG. 4): 2 µg/mL | concentration up to which antibodies were not displaced (anti-D4 K antibodies; trypsinogen without enteropeptidase activation): > 100 µg/mL
